PubChem BioAssay (NCI)
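Exposure lasted 48 hours, with cells grown in 96-well plates and compounds tested at five concentrations. The concentration for 50% growth inhibition is given as GI50. TGI: total growth inhibition.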

Key:
Assay in all cases: DTP human tumour cell line panel, 48 h
K-562 leukemia = tested on: K-562 leukemia
OVCAR-4 ovarian = tested on: OVCAR-4 ovarian
LOX IMVI melanoma = tested on: LOX IMVI melanoma
OVCAR-8 ovarian = tested on: OVCAR-8 ovarian
IGROV1 ovarian = tested on: IGROV1 ovarian
MDA-MB-231 breast = tested on: MDA-MB-231 breast
HCC-2998 colon = tested on: HCC-2998 colon
MCF7 breast = tested on: MCF7 breast
SK-MEL-28 melanoma = tested on: SK-MEL-28 melanoma
SNB-75 CNS = tested on: SNB-75 CNS
UACC-62 melanoma = tested on: UACC-62 melanoma
NCI-H226 lung = tested on: NCI-H226 lung
ACHN renal = tested on: ACHN renal
SW-620 colon = tested on: SW-620 colon
RXF 393 renal = tested on: RXF 393 renal
OVCAR-5 ovarian = tested on: OVCAR-5 ovarian
RPMI-8226 leukemia = tested on: RPMI-8226 leukemia
CAKI-1 renal = tested on: CAKI-1 renal
A549 NSCLC = tested on: A549 NSCLC
PC-3 prostate = tested on: PC-3 prostate
NCI-H522 lung = tested on: NCI-H522 lung
HCT-15 colon = tested on: HCT-15 colon
HOP-92 NSCLC = tested on: HOP-92 NSCLC
EKVX NSCLC = tested on: EKVX NSCLC
COLO 205 colon = tested on: COLO 205 colon
SF-539 CNS = tested on: SF-539 CNS
A498 renal = tested on: A498 renal
TK-10 renal = tested on: TK-10 renal
BT-549 breast = tested on: BT-549 breast
HOP-62 NSCLC = tested on: HOP-62 NSCLC
M14 melanoma = tested on: M14 melanoma
HS 578T breast = tested on: HS 578T breast
SNB-19 CNS = tested on: SNB-19 CNS
MOLT-4 leukemia = tested on: MOLT-4 leukemia
SK-OV-3 ovarian = tested on: SK-OV-3 ovarian
DU-145 prostate = tested on: DU-145 prostate
NCI-H460 lung = tested on: NCI-H460 lung
OVCAR-3 ovarian = tested on: OVCAR-3 ovarian
KM12 colon = tested on: KM12 colon
SN12C renal = tested on: SN12C renal
SK-MEL-5 melanoma = tested on: SK-MEL-5 melanoma
SF-295 CNS = tested on: SF-295 CNS
786-0 renal = tested on: 786-0 renal
HT29 colon = tested on: HT29 colon
CCRF-CEM leukemia = tested on: CCRF-CEM leukemia
MDA-MB-435 = tested on: MDA-MB-435
U251 CNS = tested on: U251 CNS
UO-31 renal = tested on: UO-31 renal
SR leukemia = tested on: SR leukemia
SF-268 CNS = tested on: SF-268 CNS
NCI-H23 lung = tested on: NCI-H23 lung
T-47D breast = tested on: T-47D breast
UACC-257 melanoma = tested on: UACC-257 melanoma
HCT-116 colon = tested on: HCT-116 colon

N#CCC1CCN(c2nc(Nc3ccc(N4CCC(O)CC4)cc3)c3c(=O)[nH]ncc3n2)CC1
GI50 (K-562 leukemia): 1510 nM | TGI (K-562 leukemia): > 100000 nM | GI50 (OVCAR-4 ovarian): > 58100 nM | TGI (OVCAR-4 ovarian): > 100000 nM | GI50 (LOX IMVI melanoma): 489 nM | TGI (LOX IMVI melanoma): > 100000 nM | GI50 (OVCAR-8 ovarian): 8080 nM | TGI (OVCAR-8 ovarian): > 100000 nM | GI50 (IGROV1 ovarian): 266 nM | TGI (IGROV1 ovarian): 2950 nM | GI50 (MDA-MB-231 breast): 1170 nM | TGI (MDA-MB-231 breast): > 100000 nM | GI50 (HCC-2998 colon): 1710 nM | TGI (HCC-2998 colon): > 100000 nM | GI50 (MCF7 breast): 297 nM | TGI (MCF7 breast): > 100000 nM | GI50 (SK-MEL-28 melanoma): 1200 nM | TGI (SK-MEL-28 melanoma): > 100000 nM | GI50 (SNB-75 CNS): 337 nM | TGI (SNB-75 CNS): 2430 nM | GI50 (UACC-62 melanoma): > 100000 nM | TGI (UACC-62 melanoma): > 100000 nM | GI50 (NCI-H226 lung): 639 nM | TGI (NCI-H226 lung): > 100000 nM | GI50 (ACHN renal): 473 nM | TGI (ACHN renal): > 100000 nM | GI50 (SW-620 colon): 443 nM | TGI (SW-620 colon): > 100000 nM | GI50 (RXF 393 renal): 303 nM | TGI (RXF 393 renal): 1300 nM | GI50 (OVCAR-5 ovarian): 1220 nM | TGI (OVCAR-5 ovarian): > 100000 nM | GI50 (RPMI-8226 leukemia): > 100000 nM | TGI (RPMI-8226 leukemia): > 100000 nM | GI50 (CAKI-1 renal): 312 nM | TGI (CAKI-1 renal): > 100000 nM | GI50 (A549 NSCLC): 455 nM | TGI (A549 NSCLC): > 100000 nM | GI50 (PC-3 prostate): > 100000 nM | TGI (PC-3 prostate): > 100000 nM | GI50 (NCI-H522 lung): > 100000 nM | TGI (NCI-H522 lung): > 100000 nM | GI50 (HCT-15 colon): 428 nM | TGI (HCT-15 colon): > 100000 nM | GI50 (HOP-92 NSCLC): 239 nM | TGI (HOP-92 NSCLC): > 100000 nM | GI50 (EKVX NSCLC): 1850 nM | TGI (EKVX NSCLC): > 100000 nM | GI50 (COLO 205 colon): 374 nM | GI50 (SF-539 CNS): 869 nM | TGI (SF-539 CNS): 2820 nM | GI50 (A498 renal): 342 nM | TGI (A498 renal): 1740 nM | GI50 (TK-10 renal): 306 nM | TGI (TK-10 renal): > 100000 nM | GI50 (BT-549 breast): 1280 nM | TGI (BT-549 breast): > 100000 nM | GI50 (HOP-62 NSCLC): 801 nM | TGI (HOP-62 NSCLC): > 100000 nM | GI50 (M14 melanoma): 402 nM | TGI (M14 melanoma): > 100000 nM | GI50 (HS 578T breast): 220 nM | TGI (HS 578T breast): 1230 nM | GI50 (SNB-19 CNS): 5020 nM | TGI (SNB-19 CNS): > 100000 nM | GI50 (MOLT-4 leukemia): 652 nM | TGI (MOLT-4 leukemia): > 100000 nM | GI50 (SK-OV-3 ovarian): 267 nM | TGI (SK-OV-3 ovarian): 1880 nM | GI50 (DU-145 prostate): 547 nM | TGI (DU-145 prostate): > 100000 nM | GI50 (NCI-H460 lung): 692 nM | TGI (NCI-H460 lung): > 100000 nM | TGI (OVCAR-3 ovarian): > 100000 nM | GI50 (KM12 colon): 38 nM | TGI (KM12 colon): > 100000 nM | GI50 (SN12C renal): 391 nM | TGI (SN12C renal): > 100000 nM | GI50 (SK-MEL-5 melanoma): > 100000 nM | TGI (SK-MEL-5 melanoma): > 100000 nM | GI50 (SF-295 CNS): 1440 nM | TGI (SF-295 CNS): > 100000 nM | GI50 (786-0 renal): 820 nM | TGI (786-0 renal): > 100000 nM | GI50 (HT29 colon): 283 nM | TGI (HT29 colon): > 100000 nM | GI50 (CCRF-CEM leukemia): 1010 nM | TGI (CCRF-CEM leukemia): > 100000 nM | GI50 (MDA-MB-435): 628 nM | TGI (MDA-MB-435): > 100000 nM | GI50 (U251 CNS): 1030 nM | TGI (U251 CNS): > 100000 nM | GI50 (UO-31 renal): 259 nM | TGI (UO-31 renal): 4670 nM | GI50 (SR leukemia): 288 nM | TGI (SR leukemia): > 100000 nM | GI50 (SF-268 CNS): 1200 nM | TGI (SF-268 CNS): > 100000 nM | GI50 (NCI-H23 lung): 732 nM | TGI (NCI-H23 lung): > 100000 nM | GI50 (T-47D breast): 2050 nM | TGI (T-47D breast): > 100000 nM | GI50 (UACC-257 melanoma): > 100000 nM | TGI (UACC-257 melanoma): > 100000 nM | GI50 (HCT-116 colon): 345 nM | TGI (HCT-116 colon): > 100000 nM
